Consider nine compounds from US20250042891A1, “Compound containing structure of a heteroaromatic ring, pharmaceutical composition thereof and application thereof” (SHANGHAI YINGLI PHARMACEUTICAL CO., LTD, priority 2023, published 2025).

The term IC50 denotes the point on the concentration scale where inhibition reaches its midpoint.

The target in assay [1] is PARG (389-976) (Homo sapiens (Human), UniProt Q86W56). Put plainly: PARG enzyme inhibition assay (TR-FRET). Format: biochemical. The procedure: PARG in vitro assays were conducted in standard 384-well plates in a total volume of 15 μL. 5 μL of PARG (389-976) (manufactured by Chempartner Chemical Co., Ltd.) in buffer (50 mM Tris-HCL 7.5, 30 mM KCl, 1 mM EDTA, 3 mM DTT, tween-20 0.01%, BSA 0.025%) was added at a final concentration of 1.5 pM to the 384-well plates containing the compounds to be tested, which was incubated for 30 min at room temperature. To the above mixture was added 5 μL Bio PARylated His-TEV-PARP1(2-1014) substrate (manufactured by Chempartner Chemical Co., Ltd.) at a final concentration of 12 nM, after addition, the resulting mixture was incubated for 30 minutes at room temperature. Then to the mixture was added detection reagent (5 μL) which was buffered with 50 mM Tris-HCL 7.5, 30 mM KCl, 1 mM EDTA, 3 mM DTT, tween-20 0.01%, BSA 0.025%, and consisted of 3 μM of compound PDD00017273 and 9 nM Mab anti-6HIS XL665 (Cisbio: 61HISXLA) and 0.9 nM streptavidin affinity terbium cryptate (Cisbio:610SATLA), all at 3× working concentrations (final concentrations of 1 μM, 3 nM and 0.3 nM, respectively). After 120 min incubation in the dark at room temperature, TR-FRET signals were measured at Ex 340 and Em 665 and Em 615. The ratio for each well was calculated as Em 665/Em 615 and the compound inhibition rate was calculated based on the obtained data.

The test system of assay [2] is NCI-H460. Put plainly: CTG assay for proliferation inhibition of cell lines. In kind it is cell-based. Particulars: NCI-H460, 7 days, CellTiter Glo. The method, then:
(§1) The assay was conducted on either 384-well plates or 96-well plates. The procedures are as follows:
(§2) The cell suspensions were added to 384- or 96-well plates (384-well plate: 50 μL; 96-well plate: 100 μL) except for peripheral wells. The plates were incubated in a carbon dioxide incubator overnight, HCC1395, HCC1428 and NCI-H460 were placed in a carbon dioxide incubator of 5%, […] overnight. Prepared compounds (10 concentration gradients by serial 3-fold dilution) were added to the wells using the HPD300 micro-dosing instrument. The cell plates were incubated in a carbon dioxide incubator for 7 days. HCC1395, HCC1428 and NCI-H460 were incubated in a 5%, 37° CO2 incubator. On the day of plate measurement, 384- or 96-well plates were first equilibrated at room temperature for 10-30 minutes, then to the 384- or 96-well plate was added CellTiter Glo reagent (384-well plate: 25 μL; 96-well plate: 100 μL), shaken for 10 minutes away from light, and incubated for 10 minutes. The incubated plates were placed into Victor NIVO reader plates, and the pharmacodynamic inhibition curves were plotted and IC50 values were calculated using XLFit.
In general terms: ATP-based viability assays read luminescence as a measure of living cells.

The subject of assay [3] is HCC1428. The description is as above. In kind it is cell-based. To be noted: HCC1428, 7 days, CellTiter Glo. The procedure: as §1, §2
Assay [4] deals with HCC1395. Described as above. Format: cell-based. Particulars: HCC1395, 7 days, CellTiter Glo. The method, then:
as §1, §2

[5] abbreviates: class symbol, Bio PARylated His-TEV-PARP1 substrate, TR-FRET.
Where [6] appears, read: numeric value in parentheses under the class symbol.

The structures appear in SMILES notation.

PARG (389-976), sequence (Q86W56 389-976): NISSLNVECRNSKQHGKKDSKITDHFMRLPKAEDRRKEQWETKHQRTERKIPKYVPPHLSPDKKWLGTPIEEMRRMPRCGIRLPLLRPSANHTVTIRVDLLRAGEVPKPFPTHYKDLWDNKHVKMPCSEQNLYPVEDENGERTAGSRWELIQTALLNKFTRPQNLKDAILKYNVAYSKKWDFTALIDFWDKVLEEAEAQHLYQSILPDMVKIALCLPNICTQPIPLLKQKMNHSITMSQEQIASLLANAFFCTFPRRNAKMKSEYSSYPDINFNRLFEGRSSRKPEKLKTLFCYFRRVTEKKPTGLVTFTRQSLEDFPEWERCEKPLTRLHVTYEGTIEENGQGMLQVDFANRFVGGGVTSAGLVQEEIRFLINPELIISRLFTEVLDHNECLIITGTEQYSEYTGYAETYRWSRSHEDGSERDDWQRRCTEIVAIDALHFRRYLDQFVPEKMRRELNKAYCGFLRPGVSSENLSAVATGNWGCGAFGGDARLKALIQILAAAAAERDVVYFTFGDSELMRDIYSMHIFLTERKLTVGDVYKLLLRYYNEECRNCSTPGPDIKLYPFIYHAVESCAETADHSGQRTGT

For `Cn1nc(-c2nnc(C(F)F)s2)c2cc(S(=O)(=O)NC3(C#N)CC3)cc(C3=CCN(S(=O)(=O)C4CCC4)CC3)c21` [Compound 12], the half-maximal inhibitory concentration (IC50) in assay [1] (setting [5]) was less than 1 nM; in assay [2] (Homo sapiens, 168 h), 0.148 µM; in assay [3] (Homo sapiens, 168 h), 0.151 µM; in assay [4] (Homo sapiens, 168 h), 0.169 µM.

Regarding `CN(C)S(=O)(=O)N1CC=C(c2cc(S(=O)(=O)NC3(C#N)CC3)cc3c(-c4nnc(C(F)F)s4)nn(C)c23)CC1` [Compound 32], the IC50 in assay [1] (setting [5]) was 1 to 10 nM; in assay [1] (setting [6]), 1.03 nM; in assay [2], 0.21 µM; in assay [3], 0.232 µM; in assay [4] it was 0.177 µM.

Turning to `CC(C)C(=O)N1CCN(c2cc(S(=O)(=O)NC3(C#N)CC3)cc3c2cnn3-c2nnc(C(F)F)s2)CC1` [1′, reference compound], the IC50 was 1 to 10 nM in assay [1] (setting [5]); 1.9 nM in assay [1] (setting [6]); 0.796 µM in assay [2] (Homo sapiens, 168 h); 1.38 µM in assay [3] (Homo sapiens, 168 h); 1.29 µM in assay [4] (Homo sapiens, 168 h).

Take `CC(C)S(=O)(=O)N1CCC2(c3cc(S(=O)(=O)NC4(C#N)CC4)cc4c(-c5nnc(C(F)F)s5)nn(C)c34)OC2C1` (stereo not shown) [Compound 38]: the half-maximal inhibitory concentration (IC50) in assay [1] (setting [5]) is less than 1 nM; in assay [2], 0.366 µM; in assay [3], 0.4 µM; in assay [4], 0.432 µM.

For `CC(C)S(=O)(=O)N1CCN(c2cc(S(=O)(=O)NC3(C#N)CC3)cc3c(-c4nnc(C(F)(F)F)s4)nn(C)c23)CC1` [Compound 35], the 50% inhibitory concentration (IC50) in assay [1] (setting [5]) is less than 1 nM; in assay [2], 0.162 µM; in assay [3] it was 0.698 µM; in assay [4], 0.284 µM.

As for `CC(C)S(=O)(=O)N1CC=C(c2cc(S(=O)(=O)NC3(C#N)CC3)cc3c(-c4nnc(C(F)(F)F)s4)nn(CC4COC4)c23)CC1` [Compound 60], the IC50 in assay [1] (setting [5]) was 1 to 10 nM; in assay [2] (Homo sapiens, 168 h), 0.115 µM; in assay [3] (Homo sapiens, 168 h), 0.0778 µM; in assay [4] (Homo sapiens, 168 h) it was 0.181 µM.

Take `CC(C)[S+]([O-])C1CC=C(c2cc(S(=O)(=O)NC3(C#N)CC3)cc3c(-c4nnc(C(F)F)s4)nn(C)c23)CC1` (stereo not shown) [Compound 30]: the half-inhibitory concentration (IC50) in assay [1] (setting [5]) is less than 1 nM; in assay [1] (setting [6]), 0.61 nM; in assay [2] it was 0.656 µM; in assay [3], 0.45 µM; in assay [4], 0.787 µM.

Consider `Cn1nc(-c2nnc(C(F)F)s2)c2cc(S(=O)(=O)NC3(C#N)CC3)cc(C3=CCN(S(=O)(=O)C4CNC4)CC3)c21` [Compound 20], for which the half-maximal inhibitory concentration (IC50) in assay [1] (setting [5]) was less than 1 nM; in assay [1] (setting [6]) it was 0.06 nM; in assay [2], 2.81 µM; in assay [3], 3.02 µM; in assay [4], 3.95 µM.

On to `CC(C)S(=O)(=O)N1CC=C(c2cc(S(=O)(=O)NC3(C#N)CC3)cc3c(-c4ccc(C(F)F)nn4)nn(C)c23)CC1` [Compound 78], for which the half-maximal inhibitory concentration (IC50) in assay [1] (setting [5]) was 1 to 10 nM; in assay [2], 0.426 µM; in assay [3], 0.532 µM; in assay [4] it was 0.5 µM.
